Read-outs that look alike come from different tables or passages of the source.
Columns and labels:
HsEH = target: T1, HsEH (Homo sapiens, UniProt P34913); experiment: biochemical; assay type: biochemical
T1 sequence (P34913 1-555): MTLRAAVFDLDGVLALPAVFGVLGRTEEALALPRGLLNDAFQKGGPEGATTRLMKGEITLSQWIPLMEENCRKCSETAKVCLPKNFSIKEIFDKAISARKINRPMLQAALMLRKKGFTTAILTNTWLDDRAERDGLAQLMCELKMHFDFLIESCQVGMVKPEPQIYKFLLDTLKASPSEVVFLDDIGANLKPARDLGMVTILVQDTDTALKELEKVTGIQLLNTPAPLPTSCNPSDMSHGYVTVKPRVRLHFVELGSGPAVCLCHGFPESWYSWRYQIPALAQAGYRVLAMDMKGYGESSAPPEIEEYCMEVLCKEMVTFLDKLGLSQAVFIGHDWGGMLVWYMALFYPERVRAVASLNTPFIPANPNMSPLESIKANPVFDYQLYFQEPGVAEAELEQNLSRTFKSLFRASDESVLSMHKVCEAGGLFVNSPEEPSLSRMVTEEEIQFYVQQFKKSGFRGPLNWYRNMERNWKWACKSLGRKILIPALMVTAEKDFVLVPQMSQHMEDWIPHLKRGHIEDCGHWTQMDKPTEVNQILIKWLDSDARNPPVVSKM
Description: (§1) Detection principle: a specific substrate, (3-phenyl-oxy)-acetic acid cyano-(6-methoxy-naphthalen-2-yl)methyl ester, namely PHOME, is non-fluorescent but can be hydrolyzed under the action of sEH enzyme to generate a product 6-methoxy-2-naphthaldehyde. The 6-methoxy-2-naphthaldehyde can emit fluorescence with a wavelength of 465 nm under 330 nm light wave excitation, and an intensity of the detected fluorescence signal is inversely proportional to an inhibitory effect on the sEH enzyme. Based on the above principle, the inhibition rates of samples with different concentrations were calculated compared with the positive control group. The IC50 value of the compound was calculated based on the inhibition rate and concentration using SPSS 20 software.
(§2) 25 mM Tris-HCl buffer (pH=7.4, containing 0.1 mg/mL BSA): […] BAS was added to 12.5 mL of 1 M Tris-HCl buffer, followed by diluting with purified water, and a resulting mixture was adjusted to a pH value of 7.4 with hydrochloric acid, and diluted to 500 mL.
(§3) PHOME solution: 0.79 mg PHOME was dissolved in 106 μL DMSO to obtain a 20 mM PHOME solution, which was diluted to ⅓ mM with Tris-HCl buffer before use.
(§4) sEH solution: sEH (5 mg/mL) stock solution was stored in a refrigerator at −80° C. and diluted to 4 μg/mL with 25 mM Tris-HCl buffer before use.
(§5) A sample powder to be tested was dissolved in DMSO to a 20 mM solution, stored in a refrigerator at −20° C. for later use, and diluted with Tris-HCl buffer to corresponding concentrations when used.
(§6) Experimental design: solvent group, 100% activity group (A), inhibitor group (B), positive control group (C), as shown in Table 1.
(§7) Three replicate wells were set for each sample, and the average value of the three replicate wells was the fluorescence value (F) of the compound to be tested. […] The IC50 value of the compound was calculated based on the inhibition rate and concentration using SPSS 20 software.

MsEH = target: T2, MsEH (Mus musculus, UniProt P34914); experiment: sEH inhibitory activity, PHOME fluorescence assay (MsEH); assay type: biochemical
T2 sequence (P34914 1-554): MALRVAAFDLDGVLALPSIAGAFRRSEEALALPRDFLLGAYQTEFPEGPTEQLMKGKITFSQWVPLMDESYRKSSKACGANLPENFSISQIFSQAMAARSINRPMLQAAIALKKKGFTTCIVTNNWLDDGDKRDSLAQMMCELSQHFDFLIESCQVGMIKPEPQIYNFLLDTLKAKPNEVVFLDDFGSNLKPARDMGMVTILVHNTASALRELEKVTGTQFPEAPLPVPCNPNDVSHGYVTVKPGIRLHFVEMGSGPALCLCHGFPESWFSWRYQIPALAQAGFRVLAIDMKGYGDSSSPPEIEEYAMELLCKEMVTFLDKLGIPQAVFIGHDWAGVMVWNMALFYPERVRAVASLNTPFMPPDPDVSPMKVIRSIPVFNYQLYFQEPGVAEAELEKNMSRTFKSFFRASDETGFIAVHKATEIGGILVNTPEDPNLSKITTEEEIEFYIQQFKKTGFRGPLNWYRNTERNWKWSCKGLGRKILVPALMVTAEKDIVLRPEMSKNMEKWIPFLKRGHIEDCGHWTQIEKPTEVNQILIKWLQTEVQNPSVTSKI
Description: as §1, §2, §3, §4, §5, §6, §7

[1] = PHOME substrate 50 μM, sEH 400 ng/ml, 37° C., 10 min, fluorescence 330/465 nm, read-out: HsEH IC50 (nM) Inhibitory activity against HsEH
[2] = PHOME substrate 50 μM, sEH 400 ng/ml, 37° C., 10 min, fluorescence 330/465 nm, read-out: MsEH IC50 (nM) Inhibitory activity against MsEH

Work on “methyl 4-(2-(4-(4-(3-((1r,3R,5S,7r)-3,5-dimethyladamantan-1-yl) ureido)-3-fluorobenzyl)-1,4-diaza-1-yl)-2-oxoethyl) piperidine-1-carboxylate [GL-4]” yielded an IC50 (HsEH; [1]) of 1.1 nM and an IC50 (MsEH; [2]) of 0.41 nM.
For `CN(C)CCN1CCC(CC(=O)N2CCCN(Cc3ccc(NC(=O)NC45CC6CC(C)(CC(C)(C6)C4)C5)c(F)c3)CC2)CC1` [GL-23, 1-((1r,3R,5S,7r)-3,5-dimethyladamantan-1-yl)-3-(4-((4-(2-(1-(2-(dimethylamino)ethyl)piperidin-4-yl)acetyl)-1,4-diaza-1-yl)methyl)-2-fluorophenyl) urea], the IC50 (HsEH; [1]) was 2.59 nM and the IC50 (MsEH) was 0.67 nM.
For `CCN(CC)C(=O)C1CCN(C(=O)c2ccc(NC(=O)NC34CC5CC(C)(CC(C)(C5)C3)C4)c(F)c2)CC1` [CC-111, 1-(4-(3-((1r,3R,5S,7r)-3,5-dimethyladamantan-1-yl)ureido)-3-fluorobenzoyl)-N,N-diethylpiperidine-4-carboxamide], the IC50 (HsEH; [1]) was 2.2 nM and the IC50 (MsEH) was 0.53 nM.
Molecule “1-((1r,3R,5S,7S)-3,5-dimethyladamantan-1-yl)-3-(2-fluoro-4-(((3S)-3-(4-(2-methylbutanoyl)-1,4-diaza-1-carbonyl) piperidin-1-yl)methyl)phenyl) urea [CL-103]” has an IC50 (HsEH; [1]) of 0.25 nM and an IC50 (MsEH; [2]) of 0.62 nM.
`CC12CC3CC(C)(C1)CC(NC(=O)Nc1ccc(C(=O)N[C@H]4CC[C@H](C(=O)NCCO)CC4)cc1F)(C3)C2` [ZT-110, 4-(3-((1r,3R,5S,7r)-3,5-dimethyladamantan-1-yl)ureido)-3-fluoro-N-((1r,4R)-4-((2-hydroxyethyl)carbamoyl)cyclohexyl)benzamide] was tested, and the IC50 (HsEH) was 0.8 nM and the IC50 (MsEH) was 0.18 nM.
`CC12CC3CC(C)(C1)CC(NC(=O)Nc1ccc(C(=O)N4CCC(C(=O)N5CCN(CCO)CC5)CC4)cc1F)(C3)C2` [CC-112, 1-((1r,3R,5S,7r)-3,5-dimethyladamantan-1-yl)-3-(2-fluoro-4-(4-(4-(2-hydroxyethyl)piperazine-1-carbonyl)piperidine-1-carbonyl)phenyl) urea] showed an IC50 (HsEH) of 12.5 nM and an IC50 (MsEH) of 0.32 nM.
`CN(C)C(=O)[C@H]1CCCN(Cc2ccc(NC(=O)NC34CC5CC(C)(CC(C)(C5)C3)C4)c(F)c2)C1` [CL-105, (S)-1-(4-(3-((1r,3R,5S,7S)-3,5-dimethyladamantan-1-yl)ureido)-3-fluorobenzyl)-N,N-dimethylpiperidine-3-carboxamide] gave an IC50 (HsEH) of 0.7 nM and an IC50 (MsEH) of 0.12 nM.
Molecule `CC12CC3CC(C)(C1)CC(NC(=O)Nc1ccc(CN4CCC(C(N)=O)CC4)cc1F)(C3)C2` [CL-118, 1-(4-(3-((1r,7r)-3,5-dimethyladamantan-1-yl)ureido)-3-fluorobenzyl) piperidine-4-carboxamide] has an IC50 (HsEH; [1]) of 1.54 nM.
`CCC(C)C(=O)N1CCC(CC(=O)N2CCCN(Cc3ccc(NC(=O)NC45CC6CC(C)(CC(C)(C6)C4)C5)c(F)c3)CC2)CC1` [GL-2, 1-((1r,3R,5S,7r)-3,5-dimethyladamantan-1-yl)-3-(2-fluoro-4-((4-(2-(1-(2-methylbutyryl)piperidin-4-yl)acetyl)-1,4-diaza-1-yl)methyl)phenyl) urea] was tested, and the IC50 (HsEH; [1]) was 0.77 nM and the IC50 (MsEH) was 0.16 nM.
For `CC12CC3CC(C)(C1)CC(NC(=O)Nc1ccc(C(=O)N[C@H]4CC[C@H](C(N)=O)CC4)cc1F)(C3)C2` [ZT-113, N-((1r,4R)-4-carbamoylcyclohexyl)-4-(3-((1r,3R,5S,7r)-3,5-dimethyladamantan-1-yl)ureido)-3-fluorobenzamide], the IC50 (HsEH; [1]) was 0.84 nM and the IC50 (MsEH) was 0.35 nM.
`CCC(C)C(=O)N1CCC(CC(=O)N2CCCN(C(=O)c3ccc(NC(=O)NC45CC6CC(C)(CC(C)(C6)C4)C5)c(F)c3)CC2)CC1` [CC-103, 1-((1r,3R,5S,7r)-3,5-dimethyladamantan-1-yl)-3-(2-fluoro-4-(4-(2-(1-(2-methylbutyryl)piperidin-4-yl)acetyl)-1,4-diaza-1-carbonyl)phenyl) urea] gave an IC50 (MsEH; [2]) of 0.35 nM.
Work on `CC12CC3CC(C)(C1)CC(NC(=O)Nc1ccc(CN4CCC[C@H](C(N)=O)C4)cc1F)(C3)C2` [CL-101, (S)-1-(4-(3-((1r,3R,5S,7S)-3,5-dimethyladamantan-1-yl)ureido)-3-fluorobenzyl) piperidine-3-carboxamide] yielded an IC50 (HsEH; [1]) of 0.14 nM.

Reference: patent US20260224548A1 (priority 2022, published 2026)
